In patent US10363239B2, “Method for inhibiting growth of cancer cells” (Pain Therapeutics, Inc., priority 2013, dated 2019):
Where two headings read alike, the source gives them in different places.

Legend:
[1] = biological target: FLNA pentapeptide of SEQ ID NO: 1 (Bn-VAKGL) (Homo sapiens, UniProt P21333); test: FITC-NLX-based FLNA screening assay (inhibition of FITC-naloxone binding to Bn-VAKGL on streptavidin plates); details: 10 nM FITC-NLX
mu opiate receptor (MOR) = test: MOR agonist activity using [35S]GTPγS binding assay in striatal membranes; format: biochemical; details: for % DAMGO (0.1 μM) / % DAMGO (1 μM): relative to DAMGO; for % DAMGO + BFNA: 1 μM compound + β-FNA, relative to DAMGO + BFNA
In short: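 Striatal membranes (200 μg) were preincubated 5 min at 30 °C in HEPES pH 7.5 with 100 mM NaCl, 1 mM MgCl2 and 0.5 nM [35S]GTPγS, then 5 min more with 0.1–10 μM compound. Gαo was immunoprecipitated and bound radioactivity counted by scintillation.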

[2] = FLNA-binding compound 0.01 μM, read-out: Percent Binding Inhibition
[3] = FLNA-binding compound 0.1 μM, read-out: Percent Binding Inhibition
[4] = FLNA-binding compound 1 μM, read-out: Percent Binding Inhibition
[5] = Series C-1, 0.1 μM compound, [35S]GTPγS binding to Gαo, striatal membranes
[6] = Series C-1, 1 μM compound + 1 μM β-FNA
[7] = Series C-1, 1 μM compound, [35S]GTPγS binding to Gαo, striatal membranes
[8] = read-out: Percent Binding Inhibition, FLNA-binding compound 0.01 μM
[9] = read-out: Percent Binding Inhibition, FLNA-binding compound 0.1 μM
[10] = read-out: Percent Binding Inhibition, FLNA-binding compound 1 μM

| Structure (SMILES) | inhibition at 0.01 µM [1, 2] [%] | inhibition at 0.1 µM [1, 3] [%] | inhibition at 1 µM [1, 4] [%] | % DAMGO (0.1 μM) (mu opiate receptor (MOR); Series C-1, 0.1 μM compound) [%] | Concentration of FLNA-Binding Compound as Agonist 0.1 μM (mu opiate receptor (MOR); [5]) [%] | Concentration of FLNA-Binding Compound as Agonist 1 μM + BFNA (mu opiate receptor (MOR); [6]) [%] | % DAMGO + BFNA (mu opiate receptor (MOR); Series C-1) [%] | % DAMGO (1 μM) (mu opiate receptor (MOR); Series C-1, 1 μM compound) [%] | Concentration of FLNA-Binding Compound as Agonist 1 μM (mu opiate receptor (MOR); [7]) [%] | inhibition at 0.01 µM [1, 8] [%] | inhibition at 0.1 µM [1, 9] [%] | inhibition at 1 µM [1, 10] [%] | % DAMGO (0.1 μM) (mu opiate receptor (MOR); Series C-2, 0.1 μM compound) [%] | MOR agonist activity, percent [35S]GTPγS binding at the stated compound concentration (mu opiate receptor (MOR); Series C-2, 0.1 μM compound, [35S]GTPγS binding to Gαo, striatal membranes) [%] | MOR agonist activity, percent [35S]GTPγS binding at the stated compound concentration (mu opiate receptor (MOR); Series C-2, 1 μM compound + 1 μM β-FNA) [%] | % DAMGO + BFNA (mu opiate receptor (MOR); Series C-2) [%] | % DAMGO (1 μM) (mu opiate receptor (MOR); Series C-2, 1 μM compound) [%] | MOR agonist activity, percent [35S]GTPγS binding at the stated compound concentration (mu opiate receptor (MOR); Series C-2, 1 μM compound, [35S]GTPγS binding to Gαo, striatal membranes) [%] |
| --- | --- | --- | --- | --- | --- | --- | --- | --- | --- | --- | --- | --- | --- | --- | --- | --- | --- | --- |
| COc1ccc(C(=O)N2CCC3(CC2)OCCN3S(=O)(=O)c2ccc(OC)cc2)cc1 [Compound C0018] | 42.3 | 45.9 | 53.4 | 110.7 | 195.5 | 106.5 | 162.1 | 95.5 | 247.7 |  |  |  |  |  |  |  |  |  |
| COc1ccc(C(=O)N2CCOC23CCN(S(=O)(=O)c2ccc(OC)cc2)CC3)cc1 [Compound C0019] |  |  |  | 59.1 | 104.4 | 52.8 | 80.4 | 68.1 | 176.6 | 30.1 | 38.2 | 43.6 |  |  |  |  |  |  |
| O=C(O)c1ccc(C(=O)N2CCC3(CC2)OCCN3S(=O)(=O)c2ccc(C(=O)O)cc2)cc1 [Compound C0021] | 34 | 38.4 | 40.6 | 94.5 | 159.7 | 90.7 | 546.4 | 87.8 | 192.0 |  |  |  |  |  |  |  |  |  |
| O=C(c1ccc([N+](=O)[O-])cc1)N1CCC2(CC1)OCCN2S(=O)(=O)c1ccc([N+](=O)[O-])cc1 [Compound C0022] |  |  |  | 113.5 | 194.3 | 13.4 | 25.7 | 123.2 | 328.7 | 34.5 | 37.6 | 43.9 |  |  |  |  |  |  |
| CNc1ccc(S(=O)(=O)N2CCC3(CC2)OCCN3S(=O)(=O)c2ccc(NC)cc2)cc1 [Compound C0024] | 37.9 | 46.4 | 50.4 | 92.8 | 178.4 | 59.3 | 135.1 | 84.1 | 229.6 |  |  |  |  |  |  |  |  |  |
| O=S(=O)(c1ccc(Br)cc1)N1CCC2(CC1)OCCN2S(=O)(=O)c1ccc(Br)cc1 [Compound C0025] |  |  |  | 122.6 | 235.7 | 80.2 | 182.7 | 117.5 | 320.7 | 37.2 | 41.4 | 45.1 |  |  |  |  |  |  |
| COc1ccc(S(=O)(=O)N2CCC3(CC2)NCCO3)cc1 [Compound C0026] | 42.3 | 44.8 | 49 |  |  |  |  |  |  |  |  |  | 107.7 | 207.2 | 21.2 | 48.3 | 105.6 | 288.4 |
